Results taken from patent US20230181535A1, “UBIQUITIN-LIGASE INHIBITORS FOR THE TREATMENT OF CANCER” (FUNDACIÓN PROFESOR NOVOA SANTOS, priority 2020, published 2023).
“Also recorded” adds a separate entry of the source.

Columns and labels:
[1] = tested on: Colon cancer HCT116 cells; assay: BrdU proliferation assay, HCT116; assay type: cell-based, human; conditions: 48 h
Experimental: (§1) For BrdU assays, 1×10^4 of indicated cells were plated per well into a 96-well plate. After 24 h, cells were treated with the indicated inhibitors for 48 h. Three independent experiments were plated with six replicates per each condition. Cells were treated with […] BrdU for 2 h. BrdU incorporation into newly synthesized DNA was measured using a cell proliferation colorimetric immunoassay kit according to the manufacturer's instructions (Roche, Switzerland). Results are expressed as mean±S.D. Results are represented as percentage of positive cells (mean±S.D) of three independent experiments.

liver cancer HepG2 cells = assay: BrdU proliferation assay, HepG2; assay type: cell-based, human; conditions: 48 h
Experimental: as §1

[2] = tested on: Hakai-MDCK xenograft tumours; assay: Tumour xenograft model (Hakai-MDCK cells in nude mice); assay type: in vivo
Experimental: Xenografts experiments were performed in Experimental Surgery Unit—Technological Training Center from INIBIC in compliance with the European Community Law (86/609/EEC) and the Spanish law (R.D. 53/2013). The experiment was approved by the Ethics Committee for Animal Experimentation of Xerencia de Xestion Integrada da Coruna (XXIAC). Mice were in a 12/12 hours light/dark cycle with water and food available ad libitum. Six weeks old athymic nu/nu mice were randomly distributed in groups. One million of MDCK cells, resuspended in DMEM without serum and antibiotic, were subcutaneously inoculated in both flanks in two groups of 3 animals. The same number of Hakai-MDCK cells were injected in two groups of 4 animals. […] Then, half of the animals were treated with Hakin-1 (5 mg/kg) and the other half with the same concentration of DMSO every 3 days. Tumour outgrowth was monitored twice a week taking measurements of tumour length (L) and width (W) with an electronic calipter. Tumour volume was calculated as pLW2/6. Forty days after inoculation, animals were sacrificed. Tumours, lungs, kidneys and livers were collected and fixed in 4% PFA and embedded in paraffin blocks for histology and/or immunohistochemistry (IHC) analyses.
Tumours and tissues were deparaffinised, rehydrated and stained with haematoxylin and eosin (H&E) as previously described. Tumour sections (4 μm) were also deparaffinised and hydrated for immunohistochemistry. Antigen retrieval was carried by heating the samples (2100 Retriever; PickCell Laboratories) in citrate buffer (Dako REAL, Denmark) or in EDTA buffer. Then, endogenous peroxidase activity was blocked with peroxidase blocking (DakoCytomation, Denmark). Samples were blocked and permeabilized with 0.2% BSA and 0.1% Tx-100 for 1 hour and incubated with the indicated primary antibodies overnight at 4° C. in a wet chamber. Slides were incubated for 1 hour at room temperature with the secondary antibody and detection was carried our using DAB (DakoReal Envision kit) according to manufacturer instructions. Finally, nuclei were counterstained with Gill's Hematoxylin and mounted with DePeX. Pictures were taken with an Olympus microscope. Quantification of images was performed taken 5 photographs of each animal with Image J programme and the represented results are shown as mean±SEM. The number of mitosis was counted in sections stained with H&E. In this case, ten pictures of each tumour were taken with an Olympus BX50 microscope (objective 40×) and the number of mitosis was counted manually. Results are represented as mean±SEM and a representative photograph is shown for each condition.
Real-time PCR was used to study the presence of metastasis in the lung mice. Primers for HA epitope and Hakai present in ectopic HA-tagged Hakai expressed in MDCK-Hakai cells (5′-[…]-3′; 5″-[…]-3′) were used for the quantification. Primers for mouse apolipoprotein B (apob) (5′-[…]-3′; 5′-[…]-3′) were used as endogenous control. MDCK cell line was used as negative control. Lung DNA was extracted from 10-15 sections of paraffin blocks (4 μm) using with QIAamp DNA Mini Kit (Qiagen). The amplification and quantification of DNA was carried by quantitative PCR in technical triplicates by using a LightCycler 480 real-time lightcycler (Roche). Relative DNA levels were calculated by 2^−ΔΔCt method.
Tissue sections from tumours were deparaffinised and rehydrated using standard protocols. The slides were rinsed twice with PBS and treated with citrate buffer buffer (Dako REAL, Denmark) in microwave at 350 W for 5 min. The tissue sections were then analysed with an in situ Cell Death Detection Kit, Fluorescein (Roche) following the manufacturer's instructions. Then, slides were incubated with Hoechst for 5 min in darkness. The reaction was visualized under an epifluorescence Olympus microscope using 20× objective.

Hakai-MDCK cells = assay: Soft agar-colony formation assay, Hakai-MDCK; assay type: cell-based; conditions: 21 days
Experimental: (§2) Soft agar-colony formation assay was performed on 12-well plates in triplicates at a density of 5×10^3 MDCK and MDCK-Hakai cells/well, or 12×10^3 HT29 cells/well. Cells were seeded in medium with 0.5% low-melting agarose over a layer with 0.75% low-melting agarose (Lonza Rockland, Me., USA). Cells were treated with the indicated inhibitors and DMSO was used as vehicle. Treatment was refreshed every 3 days and, after 21 days for MDCK and MDCK-Hakai cells or 28 days for HT29 cells, number of colonies were quantified. Quantification of five randomly-selected fields of each condition was photographed with a Nikon Eclipse-TI microscope (objective 4×). Experiments were conducted with three triplicates and were repeated three times. Data are represented as mean±SD.

HT29 cells = assay: BrdU proliferation assay, HT29; assay type: cell-based, human; conditions: 48 h
Experimental: as §1

[3] = tested on: bladder cancer 5637 cells; assay: BrdU proliferation assay, 5637; assay type: cell-based, human; conditions: 48 h
Experimental: as §1

LoVo cells = assay: BrdU proliferation assay, LoVo; assay type: cell-based; conditions: 48 h
Experimental: as §1

[4] = tested on: non-transformed epithelial MDCK cells; assay: BrdU proliferation assay, MDCK; assay type: cell-based; conditions: 48 h
Experimental: as §1

HT-29 cells = assay: Soft agar-colony formation assay, HT-29; assay type: cell-based, human; conditions: 28 days
Experimental: as §2

[5] = tested on: ubiquitination in 293T cells; assay: Ubiquitination assay in 293T cells transfected with v-Src and HA-ubiquitin (Hakai not overexpressed); assay type: cell-based; conditions: vs DMSO
Experimental: Six hours after transfection cells were treated with indicated concentrations of Hakin-1, Hakin-5 or the rest of the compounds tested for 36 h. Whole cell extracts were obtained in lysis buffer (20 mM Tris-HCl pH 7.5, 150 mM NaCl and 1% Triton X-100) containing 10 μg/ml leupeptin, 10 μg/ml aprotinin and 1 mM phenylmethanesulphonyl fluoride (PMSF), supplemented with 10 mM N-ethylmaleimide. Cells were harvested and subjected to western blotting using anti-HA antibody to detect ubiquitination.

[6] = Hakai-MDCK xenograft tumours, immunohistochemistry
[7] = Hakai-MDCK xenograft, nude mice, 5 mg/kg

Row | SMILES | cell proliferation (BrdU) [1] | cell proliferation (BrdU) (liver cancer HepG2 cells) | micrometastasis in lung (quantitative PCR of HA-tagged Hakai DNA) ([2]; Hakai-MDCK xenograft mice, vs DMSO treated mice) | Cortactin expression (immunohistochemistry) ([2]; Hakai-MDCK xenograft tumours) | apoptosis (TUNEL assay) ([2]; Hakai-MDCK xenograft tumours) | mitotic-index ([2]; Hakai-MDCK xenograft tumours, H&E) | number of Ki67-positive cells [2, 6] | number of blood vessels (CD31 angiogenic marker) [2, 6] | N-cadherin mesenchymal marker expression (immunohistochemistry) ([2]; Hakai-MDCK xenograft tumours, vs DMSO treated mice) | tumour cell morphology (H&E) [2, 7] | tumour-cell infiltration in blood vessels (H&E) [2, 7] | xenograft tumour growth ([2]; Hakai-MDCK xenograft, nude mice, 5 mg/kg every 3 days, vs DMSO, 5 mg/kg) | tissue damage / systemic toxicity (H&E of organs) ([2]; nude mice treated with 5 mg/kg, 5 mg/kg) | colony formation in soft agar (Hakai-MDCK cells) | cell proliferation (BrdU) (HT29 cells) | cell proliferation (BrdU) [3] | cell proliferation (BrdU) (LoVo cells) | cell proliferation (BrdU) [4] | colony formation in soft agar (HT-29 cells) | ubiquitination when Hakai was not overexpressed [5]
1 | O=C(O)c1ccc(-n2nnnc2SCC(O)c2ccc([N+](=O)[O-])cc2)cc1 (centres unmarked) [MKH1] | inhibit cell proliferation |  |  |  |  |  |  |  |  |  |  |  |  |  |  |  |  |  |  | 
2 | O=C(O)c1ccc(-n2nnnc2SCC(=O)c2ccc([N+](=O)[O-])cc2)cc1 [Hakin-1, 4-(5-[2-(4-nitrophenyl)-2-oxoethyl]thiol-1H-tetrazol-1-yl)benzoic acid] |  | inhibited cell proliferation | significant reduction of micrometastasis | recovered | does not affect cell apoptosis; also recorded: no effect on apoptosis was detected | markedly reduce | markedly reduce | strong reduction on the number of blood vessels | strongly reduced | induction of tumour differentiation and an increase in cytoplasm size | no infiltration was detected | inhibits tumour growth; also recorded: potent effect on inhibiting xenograft tumour growth; also recorded: strong antitumor effect; also recorded: inhibited tumor growth | Intact cell morphology and tissue structure of liver and kidney; also recorded: no damage was observed in lung and kidney tissues; also recorded: apparently without systemic toxicity | robust inhibition of colony formation | reduced cell proliferation | inhibited cell proliferation | reduced cell proliferation | no effect was detected | robust inhibition of colony formation | did not affect ubiquitination
